Each structure is given as a SMILES string. Where only a bound is given, the exact number is not on record here.

For data set [1], the target named is T1, HIV-integrase (recombinant integrase) (Human immunodeficiency virus type 1 group M subtype B, UniProt P12497).
T1 construct: Recombinant integrase (0.26 ng) was incubated with the beads
In words: HIV-Integrase Inhibition Activity (SPA bead strand-transfer assay). The settings on record: recombinant integrase on biotin labeled substrate DNA/SPA beads, P33 labeled target DNA; read-out: Activity (IC50 against HIV-integrase). It is filed as biochemical. A digest of the protocol:
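Recombinant integrase (0.26 ng) was bound for 90 min at 37° C to biotin-labelled substrate DNA (5 pmole) on streptavidin SPA beads. After washing, inhibitors and 0.1 fmol P33-labelled target DNA were added, and the reaction was stopped with 10 mM EDTA. Integration was measured as CPM.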

On to `Cn1c(N2CCCCS2(=O)=O)nc(C(=O)Nc2ccc(F)cc2)c(O)c1=O` [Compound 50, 2-(1,1-Dioxo-1λ^6-[1,2]thiazinan-2-yl)-5-hydroxy-1-methyl-6-oxo-1,6-dihydro-pyrimidine-4-carboxylic acid (4-fluoro-phenyl)-amide], for which the melting point (as a rule, the temperature, or range, at which the solid turns liquid) is 285 to 291 °C (dec.). Also, the IC50 – broadly, the concentration needed to halve the response being measured – in data set [1] was ≥ 1000 nM.
On to `Cn1c(N2CCOCC2)nc(C(=O)NCc2ccc(F)cc2)c(O)c1=O` [Compound 52, N-[(4-fluorophenyl)methyl]-1,6-dihydro-5-hydroxy-1-methyl-2-(4-morpholinyl)-6-oxo-4-pyrimidinecarboxamide], for which the melting point lay within 197 to 199 °C. The IC50 in data set [1] is 3 to 100 nM.
Take `Cn1c(N2CCOCC2)nc(C(=O)NCc2ccc(Cl)c(Cl)c2)c(O)c1=O` [Compound 53, N-[(3,4-dichlorophenyl)methyl]-1,6-dihydro-5-hydroxy-1-methyl-2-(4-morpholinyl)-6-oxo-4-pyrimidinecarboxamide]: the melting point fell in the range of 100 to 102 °C. For the same compound, the IC50 in data set [1] was 3 to 100 nM.
As to `Cc1cc(CNC(=O)c2nc(N3CCOCC3)n(C)c(=O)c2O)ccc1F` [Compound 54, N-[(4-fluoro-3-methylphenyl)methyl]-1,6-dihydro-5-hydroxy-1-methyl-2-(4-morpholinyl)-6-oxo-4-pyrimidinecarboxamide], the melting point lay within 182 to 185 °C. For the same compound, in data set [1], the IC50 lay in the range of 3 to 100 nM.
Taken in the same sequence, the figures for `Cc1ccc(CNC(=O)c2nc(N3CCOCC3)n(C)c(=O)c2O)cc1F` [Compound 55, N-[(3-fluoro-4-methylphenyl)methyl]-1,6-dihydro-5-hydroxy-1-methyl-2-(4-morpholinyl)-6-oxo-4-pyrimidinecarboxamide] were 166 to 167 °C and 3 to 100 nM.
Compound `Cn1c(N2CCOCC2)nc(C(=O)NCc2ccc(F)c(Cl)c2)c(O)c1=O` [Compound 56, N-[(3-chloro-4-fluorophenyl)methyl]-1,6-dihydro-5-hydroxy-1-methyl-2-(4-morpholinyl)-6-oxo-4-pyrimidinecarboxamide] showed a melting point of 170 to 171 °C. The IC50 in data set [1] lay in the range of 3 to 100 nM.
For `Cc1ccc(CNC(=O)c2nc(N3CCOCC3)n(C)c(=O)c2O)cc1C` [Compound 57, N-[(3,4-dimethylphenyl)methyl]-1,6-dihydro-5-hydroxy-1-methyl-2-(4-morpholinyl)-6-oxo-4-pyrimidinecarboxamide], the melting point fell in the range of 164 to 166 °C. Also, the 50% inhibitory concentration (IC50) in data set [1] was 3 to 100 nM.
Taken in the same sequence, the figures for `Cc1ncn(-c2nc(C(=O)NCc3ccc(Cl)c(Cl)c3)c(O)c(=O)n2C)n1` [Compound 59, N-[(3,4-dichlorophenyl)methyl]-1,6-dihydro-5-hydroxy-1-methyl-2-(3-methyl-1H-1,2,4-triazol-1-yl)-6-oxo-4-pyrimidinecarboxamide] were 188 to 189 °C (dec.) and 3 to 100 nM.
The corresponding values for `Cc1ncn(-c2nc(C(=O)NCc3ccc(F)c(C)c3)c(O)c(=O)n2C)n1` [Compound 60, N-[(4-fluoro-3-methylphenyl)methyl]-1,6-dihydro-5-hydroxy-1-methyl-2-(3-methyl-1H-1,2,4-triazol-1-yl)-6-oxo-4-pyrimidinecarboxamide] are 204 to 205 °C and 3 to 100 nM.
For the compound `Cc1ncnn1-c1nc(C(=O)NCc2ccc(F)cc2)c(O)c(=O)n1C` [Compound 61, N-[(4-fluorophenyl)methyl]-1,6-dihydro-5-hydroxy-1-methyl-2-(5-methyl-1H-1,2,4-triazol-1-yl)-6-oxo-4-pyrimidinecarboxamide], the melting point came to 230 °C. The IC50 in data set [1] was in the range of 100 to 1000 nM.
Take `Cn1c(N2Cc3ccc(F)cc3C2=O)nc(C(=O)NCc2ccc(F)cc2)c(O)c1=O` [Compound 102, 2-(6-fluoro-1,3-dihydro-1-oxo-2H-isoindol-2-yl)-N-[(4-fluorophenyl)methyl]-1,6-dihydro-5-hydroxy-1-methyl-6-oxo-4-pyrimidinecarboxamide]: in data set [1], the IC50 is 3 to 100 nM.

The record behind these values is US7135467B2, “HIV integrase inhibitors” (priority 2003, dated 2006).
